According to paper PMC11012124, “Synthesis of Novel Triazine-Based Chalcones and 8,9-dihydro-7H-pyrimido[4,5-b][1,4]diazepines as Potential Leads in the Search of Anticancer, Antibacterial and Antifungal Agents” (International Journal of Molecular Sciences, 2024):
Values after ≈ are worked out from the molar mass of the structure shown.

What was measured:
[1] = Hemolytic activity, spectrophotometric; assay type: cell-based, human; conditions: human, human red blood cells (huRBC), 5% hematocrit, 200 μg/mL, 37 °C
60 cancer cell lines = experiment: NCI-60 one-dose screen (10 μM); assay type: cell-based; conditions: Homo sapiens; one dose of 10 μM, mean over 60 cancer cell lines; read-out: Mean Growth Percent (MGP)
From the text: Additionally, the mean of the growth percentages (MGP) of each compound against all the 60 cancer cell lines is also reported, which is used as one of the selection criteria to continue with tests at five concentration doses.

[2] = test system: Trichophyton mentagrophytes (CCC 202-2000); experiment: Antifungal broth microdilution (CLSI); assay type: cell-based; conditions: Tm: Trichophyton mentagrophytes
Protocol: (§1) Several of the obtained triazine derivatives were evaluated against sensitive fungal species comprising of two yeasts (Candida albicans (ATCC 10231), Cryptococcus neoformans (ATCC 32264)), three dermatophytes (Microsporum gypseum (CCC 115), Trichophyton rubrum (CCC 134-2000), Trichophyton mentagrophytes (CCC 202-2000)), and three Aspergillus fungi ((A. [NT] 26934), A. niger (ATCC 9029), and A. flavus (ATCC 9170)). […] Broth microdilution techniques were performed in 96-well microplates according to the Reference Method for Broth Dilution Antifungal Susceptibility Testing of Yeasts, document M27-A3 [86] and of Filamentous Fungi […]-A8 [87]. […] An inoculum suspension (100 μL) was added to each well (final well volume = 200 μL). One growth control well (containing medium, inoculum, and the same amount of DMSO as used for each compound) and one sterility control well (sample, medium, and sterile water instead of inoculum) were included for each fungus tested. Microtiter plates were incubated in a dark, humid chamber at 30 °C for the time necessary for each fungus. Amphotericin B, Terbinafine, Fluconazole and Itraconazole were used as a positive control. The tests were performed in triplicate.

[3] = test system: Microsporum gypseum (CCC 115); experiment: Antifungal broth microdilution (CLSI); assay type: cell-based; conditions: Nannizzia gypsea; Mg: Microsporum gypseum
Protocol: as §1

[4] = test system: Trichophyton rubrum (CCC 134-2000); experiment: Antifungal broth microdilution (CLSI); assay type: cell-based; conditions: Tr: Trichophyton rubrum
Protocol: as §1

[5] = test system: M. tuberculosis ATCC 27294; experiment: Antitubercular broth microdilution MIC; assay type: cell-based; conditions: Mycobacterium tuberculosis; M. tuberculosis ATCC 27294 (H37Rv); read-out: Minimum inhibitory concentration (MIC)
[6] = test system: N. gonorrhoeae ATCC 49226; experiment: MIC on GC agar plates; assay type: cell-based, Neisseria gonorrhoeae; conditions: Neisseria gonorrhoeae, ATCC49226, read-out: MIC
Protocol: An initial screening for bacterial inhibition was performed by the agar diffusion method. […] DMSO and TSB were included as negative controls. Gentamicin and trimethoprim sulfamethoxazole were included as a positive control for growth inhibition. Derivatives showing growth inhibition were tested at least twice before being selected for the microdilution test. For N. gonorrhoeae, the agar diffusion method was also used for screening with some modifications. […] Penicillin and tetracycline were used as controls. […] Briefly, GC agar supplemented with 1% isovitalex was prepared with increasing concentrations of the new compounds and inoculated with 10 µL of a bacterial suspension (1 × 10^4 CFU). The lowest concentration of the compound that inhibited bacterial growth was determined as the MIC. Bacterial growth was examined and verified using the oxidase test. The experiments were performed in duplicate in at least two independent assays.

Row | Compound | hemolysis at 24 h, 200 µg/mL [1] | activity at 10 µM (60 cancer cell lines) | MIC [6] | other results
1 | Cc1ccc(/C=C/C(=O)c2ccc(S(=O)(=O)NCCNc3nc(N(C)C)nc(N4CCOCC4)n3)cc2)cc1 [23b] | 1.8% | 72.3% | – | –
2 | CN(C/C=C/C#CC(C)(C)C)Cc1cccc2ccccc12 [Terbinafine, reference compound] | – | – | – | MIC [2]: 0.025 µg/mL (≈ 0.0858 µM); MIC [3]: 0.04 µg/mL (≈ 0.137 µM); MIC [4]: 0.01 µg/mL (≈ 0.0343 µM)
3 | COc1cc(C2CC(c3ccc(S(=O)(=O)NCCNc4nc(Nc5ccc(F)cc5)nc(N(C)C)n4)cc3)=Nc3c(N)nc(N)nc3N2)cc(OC)c1OC (stereo not drawn) [31d] | 0.6% | 79.6% | 500 µg/mL (≈ 646 µM) | MIC [5]: 5 µg/mL (≈ 6.46 µM)
4 | COc1ccc(C(=O)/C=C/c2ccc(Oc3nc(Nc4ccc(F)cc4)nc(N(C)C)n3)c(OC)c2)cc1 [21c] | – | 48.4% | – | –
5 | COc1ccc(C2CC(c3ccc(Nc4nc(NCCO)nc(N5CCOCC5)n4)cc3)=Nc3c(N)nc(N)nc3N2)cc1 (stereo not drawn) [32c] | – | 101% | – | –
6 | COc1cc(C2CC(c3ccccc3)=Nc3c(N)nc(N)nc3N2)ccc1Oc1nc(Nc2ccc(F)cc2)nc(N(C)C)n1 (stereo not drawn) [29a] | 3% | 40.2% | 2 µg/mL (≈ 3.29 µM) | MIC [5]: 5 µg/mL (≈ 8.23 µM)
7 | COc1cc(C2CC(c3ccc(C)cc3)=Nc3c(N)nc(N)nc3N2)ccc1Oc1nc(NCCO)nc(N2CCOCC2)n1 (stereo not drawn) [28b] | 5% | 89.7% | 4 µg/mL (≈ 6.52 µM) | –
8 | COc1cc(C2CC(c3cc(OC)c(OC)c(OC)c3)=Nc3c(N)nc(N)nc3N2)ccc1Oc1nc(NCCO)nc(N2CCOCC2)n1 (stereo not drawn) [28d] | 1% | 98.9% | 2 µg/mL (≈ 2.9 µM) | –
9 | COc1cc(/C=C/C(=O)c2ccc(F)cc2)ccc1Oc1nc(Nc2ccc(F)cc2)nc(N(C)C)n1 [21f] | 0.8% | 56% | 500 µg/mL (≈ 993 µM) | –
10 | Cc1ccc(C2CC(c3ccc(S(=O)(=O)NCCNc4nc(N(C)C)nc(N5CCOCC5)n4)cc3)=Nc3c(N)nc(N)nc3N2)cc1 (stereo not drawn) [30b] | 0.2% | 49.9% | – | –
11 | CN(C)c1nc(NCCNS(=O)(=O)c2ccc(C3=Nc4c(N)nc(N)nc4NC(c4ccccc4)C3)cc2)nc(N2CCOCC2)n1 (stereo not drawn) [30a] | 0.6% | 85.4% | – | –
12 | COc1ccc(C(=O)/C=C/c2ccc(Oc3nc(NCCO)nc(N4CCOCC4)n3)c(OC)c2)cc1 [20c] | – | 72% | – | –
13 | Nc1nc(N)c2c(n1)NC(c1ccc(Cl)cc1)CC(c1ccc(Nc3nc(NCCO)nc(N4CCOCC4)n3)cc1)=N2 (stereo not drawn) [32e] | – | 74% | 1000 µg/mL (≈ 1660 µM) | –
14 | NNC(=O)c1ccncc1 [Isoniazid, reference compound] | – | – | – | MIC [5]: 0.1 µg/mL (≈ 0.729 µM)
15 | COc1cc(C2CC(c3ccccc3)=Nc3c(N)nc(N)nc3N2)ccc1Oc1nc(NCCO)nc(N2CCOCC2)n1 (stereo not drawn) [28a] | 3% | 98.8% | 4 µg/mL (≈ 6.67 µM) | –
16 | COc1cc(/C=C/C(=O)c2ccc(F)cc2)ccc1Oc1nc(NCCO)nc(N2CCOCC2)n1 [20f] | – | 72.4% | – | –
17 | COc1cc(/C=C/C(=O)c2ccc(Cl)cc2)ccc1Oc1nc(NCCO)nc(N2CCOCC2)n1 [20e] | – | 94.7% | – | –
18 | Nc1nc(N)c2c(n1)NC(c1ccc(F)cc1)CC(c1ccc(Nc3nc(NCCO)nc(N4CCOCC4)n3)cc1)=N2 (stereo not drawn) [32f] | 5% | 89.1% | 2 µg/mL (≈ 3.41 µM) | –
19 | COc1cc(/C=C/C(=O)c2ccc(Cl)cc2)ccc1Oc1nc(Nc2ccc(F)cc2)nc(N(C)C)n1 [21e] | – | 73.1% | – | –
20 | COc1cc(C2CC(c3ccc(C)cc3)=Nc3c(N)nc(N)nc3N2)ccc1Oc1nc(Nc2ccc(F)cc2)nc(N(C)C)n1 (stereo not drawn) [29b] | – | 51.3% | ≥ 500 µg/mL | MIC [5]: 0.6 µg/mL (≈ 0.965 µM)
21 | CC(=O)c1ccc(S(=O)(=O)NCCNc2nc(Nc3ccc(F)cc3)nc(N(C)C)n2)cc1 [compound 18] | – | 104% | – | –
